Test results published in the NIST ThermoML archive (doi:10.1021/je900093h).
± gives the expanded uncertainty stated by the source.

Legend:
[1] = molar enthalpy of vaporization or sublimation; conditions: 304.79 K; Liquid; Static calorimetry
[2] = molar heat capacity at constant pressure; conditions: 101.33 kPa, Vacuum adiabatic calorimetry
[3] = Molar enthalpy of transition or fusion; conditions: Crystal

CCCCCCCCCC(=O)OCC [ethyl decanoate]
Conditions | Molar enthalpy of transition or fusion [kcal/mol] | molar enthalpy [kcal/mol]
[1] | – | 16.7 ± 0.335
[3] | 7.717 ± 0.0526 | –

molar heat capacity at constant pressure [J/K/mol], [2]
Conditions | Crystal | Liquid
5 K | 0.498 ± 0.019 | –
10 K | 4.477 ± 0.053 | –
15 K | 11.92 ± 0.12 | –
20 K | 21.04 ± 0.19 | –
25 K | 30.97 ± 0.27 | –
30 K | 41.18 ± 0.34 | –
35 K | 51.36 ± 0.43 | –
40 K | 61.27 ± 0.51 | –
45 K | 71.2 ± 0.59 | –
50 K | 80.91 ± 0.66 | –
60 K | 98.99 ± 0.81 | –
70 K | 115.2 ± 0.9 | –
80 K | 130.2 ± 1.1 | –
90 K | 144.3 ± 1.2 | –
100 K | 157.4 ± 1.3 | –
110 K | 169.3 ± 1.4 | –
120 K | 180 ± 1.5 | –
130 K | 189.6 ± 1.5 | –
140 K | 198.3 ± 1.6 | –
150 K | 206.8 ± 1.7 | –
160 K | 214.7 ± 1.7 | –
170 K | 222.5 ± 1.8 | –
180 K | 230.5 ± 1.9 | –
190 K | 238.8 ± 1.9 | –
200 K | 247.4 ± 2 | –
210 K | 256.7 ± 2.1 | –
220 K | 266.7 ± 2.2 | –
230 K | 277.5 ± 2.2 | –
240 K | 288.9 ± 2.3 | –
250 K | 301.2 ± 2.4 | –
253.6 K | 305.7 ± 2.5 | 386.5 ± 3.1
260 K | – | 388.1 ± 3.1
270 K | – | 391.3 ± 3.2
280 K | – | 395.2 ± 3.2
290 K | – | 399.6 ± 3.2
298.15 K | – | 403.5 ± 3.3
300 K | – | 404.4 ± 3.3
310 K | – | 409.6 ± 3.3
320 K | – | 415 ± 3.3
330 K | – | 420.6 ± 3.4
340 K | – | 426.4 ± 3.4
350 K | – | 432.3 ± 3.5
360 K | – | 438.3 ± 3.5
370 K | – | 444.5 ± 3.6
